Measured values taken from patent US4413007A, “Pesticidal symmetrical N-substituted bis-carbamoyloximino disulfide compounds” (priority 1978, dated 1983).

Experiments:
Assay type in all cases: in vivo
[1] = system: bean aphid (Aphis fabae Scop.); assay: Bean Aphid Foliage Spray Test; design: key: A: excellent control; B: partial control; C: no control; conditions: 500 ppm, 24 hour holding period
Method: (§1) Suspensions of the test compounds were prepared by dissolving one gram of compound in 50 milliliters of acetone in which had been dissolved 0.1 gram (10 percent of the weight of compound) of an alkylphenoxy polyethoxyethanol surfactant, as an emulsifying or dispersing agent. The resulting solution was mixed into 150 milliliters of water to give roughly 200 milliliters of a suspension containing the compound in finely divided form. The thus-prepared stock suspension contained 0.5 percent by weight of compound. The test concentrations in parts per million by weight employed in the tests described hereinbelow were obtained by appropriate dilutions of the stock suspension with water. The test procedures were as follows:
Adults and nymphal stages of the bean aphid (Aphis fabae Scop.) reared on potted dwarf nasturtium plants at 65°-70° F. and 50-70 percent relative humidity, constituted the test insects. For testing purposes, the number of aphids per pot was standardized to 100-150 by trimming plants containing excess aphids.
The test compounds were formulated by diluting the stock suspension with water to give a suspension containing 500 parts of test compound per million parts of final formulation.
The potted plants (one pot per compound tested) infested with 100-150 aphids, were placed on a revolving turntable and sprayed with 100-110 milliliters of test compound formulation by use of a DeVilbiss spray gun set at 40 psig. air pressure. This application, which tested 25 seconds, was sufficient to wet the plants to run-off. As a control, 100-110 milliliters of a water-acetone-emulsifier solution containing no test compound were also sprayed on infested plants. After spraying, the pots were placed on their sides on a sheet of white standard mimeograph paper which had been previously ruled to facilitate counting. Temperature and humidity in the test room during the 24 hour holding period were 65°-70° F. and 50-70 percent, respectively. Aphids which fell onto the paper and were unable to remain standing after being uprighted were considered dead. Aphids remaining on the plants were observed closely for movement and those which were unable to move the length of the body upon stimulation by prodding were considered dead. Percent mortality was recorded for various concentration levels.
(§2) In these tests the pesticidal activity of the compounds against aphid, mite, Southern Armyworm, Bean Beetle and house fly was rated as follows: […]

[2] = system: two-spotted mite (Tetranychus urticae Koch); assay: Mite Foliage Spray Test; design: key: A: excellent control; B: partial control; C: no control; conditions: 500 ppm, six days
Method: as §1
Adults and nymphal stages of the two-spotted mite (Tetranychus urticae Koch), reared on Tendergreen bean plants at 80±5 percent relative humidity, were the test organisms. Infested leaves from a stock culture were placed on the primary leaves of two bean plants six to eight inches in height, growing in a two-and-a-half inch clay pot. 150-200 Mites, a sufficient number for testing, transferred from the excised leaves to the fresh plants in a period of twenty four hours. Following the twenty four hour transfer period, the excised leaves were removed from the infested plants. The test compounds were formulated by diluting the stock suspension with water to give a suspension containing 500 parts of test compound per million parts of final formulation. The potted plants (one pot per compound) were placed on a revolving turntable and sprayed with 100-110 milliliters of test compound formulation by use of a DeVilbiss spray gun set at 40 psig. air pressure. This application, which lasted 25 seconds, was sufficient to wet the plants to run-off. As a control, 100-110 milliliters of a water solution containing acetone and emulsifier in the same concentrations as the test compound formulation, but containing no test compound, were also sprayed on infested plants. The sprayed plants were held at 80±5 percent relative humidity for six days, after which a mortality count of motile forms was made. Microscopic examination for motile forms was made on the leaves of the test plants. Any individual which was capable of locomotion upon prodding was considered living.
as §2

[3] = system: southern armyworm (Prodenia eridania, (Cram.)); assay: Southern Armyworm Leaf Spray Test; design: key: A: excellent control; B: partial control; C: no control; conditions: 500 ppm, three days
Method: as §1
Larvae of the southern armyworm (Prodenia eridania, (Cram.)), reared on Tendergreen bean plants at a temperature of 80±5° F. and a relative humidity of 50±5 percent, constituted the test insects.
The test compounds were formulated by diluting the stock suspension with water to give a suspension containing 500 parts of test compound per million parts of final formulation. Potted Tendergreen bean plants of standard height and age were placed on a revolving turntable and sprayed with 100-110 milliliters of test compound formulation by use of a DeVilbiss spray gun set at 10 psig air pressure. This application, which tested 25 seconds, was sufficient to wet plants to run-off. As a control, 100-110 milliliters of a water-acetone-emulsifier solution containing no test compound were also sprayed on infested plants. When dry, the paired leaves were separated and each one was placed in a 9 centimeter Petri dish lined with moistened filter paper. Five randomly selected larvae were introduced into each dish and the dishes were closed. The closed dishes were labeled and held at 80°-85° F. for three days. Although the larvae could easily consume the whole leaf within twenty-four hours, no more food was added. Larvae which were unable to move the length of the body, even upon stimulation by prodding, were considered dead. Percent mortality was recorded for various concentration levels.
as §2

[4] = system: Mexican bean beetle (Epilachna varivestis, Muls.); assay: Mexican Bean Beetle Leaf Spray Test; design: key: A: excellent control; B: partial control; C: no control; conditions: 500 ppm, three days
Method: as §1
Fourth instar larvae of the Mexican bean beetle (Epilachna varivestis, Muls.), reared on Tendergreen bean plants at a temperature of 80±5° F. and 50±5 percent relative humidity, were the test insects.
The test compounds were formulated by diluting the stock suspension with water to give a suspension containing 500 parts of test compound per million parts of final formulation. Potted Tendergreen bean plants of standard height and age were placed on a revolving turntable and sprayed with 100-110 milliliters of test compound formulation by use of a DeVilbiss spray gun set at 10 psig air pressure. The application, which lasted 25 seconds, was sufficient to wet plants to run-off. As a control, 100-110 milliliters of a water-acetone-emulsifier solution containing no test compound were also sprayed on infested plants. When dry, the paired leaves were separated and each was placed in a 9 centimeter Petri dish lined with moistened filter paper. Five randomly selected larvae were introduced into each dish, and the dishes were closed. The closed dishes were labeled and held at a temperature of 80±5° F. for three days. Although the larvae could easily consume the leaf within 24 to 48 hours, no more food was added. Larvae which were unable to move the length of the body, even upon stimulation, were considered dead.
as §2

[5] = system: house flies (Musca domestica, L.); assay: Fly Bait Test; design: key: A: excellent control; B: partial control; C: no control; conditions: 500 ppm in sugar solution, twenty four hours
Method: as §1
Four to six day old adult house flies (Musca domestica, L.) reared according to the specifications of the Chemical Specialities Manufacturing Association (Blue Book, McNair-Dorland Co., N.Y. 1954; pages 243-244, 261) under controlled conditions of 80±5° F. and 50±5 percent relative humidity, were the test insects. The flies were immobilized by anesthetizing with carbon dioxide and twenty five immobilized individuals,males and females, were transferred to a cage consisting of a standard food strainer about five inches in diameter which was inverted over a wrapping-paper-covered surface. The test compounds were formulated by diluting the stock suspension with a 10 percent (by weight) sugar solution to give a suspension containing 500 parts of test compound per million parts of final formulation, by weight. Ten milliliters of the test formulation were added to a souffle cup containing a one-inch square of an absorbent cotton pad. This bait cup was introduced and centered on the blotting paper under the food strainer prior to admitting the anesthetized flies. The caged flies were allowed to feed on the bait for twenty four hours, at a temperature of 80±5° F. and the relative humidity of 50±5 percent.
as §2

[6] = system: root-knot nematode (Meloidogyne incognita var. acrita); assay: Nematode Test; design: key: 1: severe galling; equal to untreated control; 2: moderate galling; 3: light galling; 4: very light galling; 5: no galling; conditions: 10 ml of 500 ppm formulation per jar (approx. 180 cc soil), cucumber indicator crop, approx. three weeks
Method: as §1
Infective migratory larvae of the root-knot nematode, (Meloidogyne incognita var. acrita) were reared in the greenhouse on roots of Rutgers variety tomato plant. Infected tomato plants were removed from the culture and the roots were chopped very finely. A small amount of inoculum from the roots was added to pint Mason jars containing approximately 180 cc of soil. The jars containing the inoculum and soil were capped and incubated for one week at room temperature. During this period eggs of the nematode hatched and the larvae forms migrated into the soil.
The test compounds were formulated by diluting the stock suspension with water to give a suspension containing 500 parts of test compound per million parts of final formulation. 10 milliliters of the test formulation was added to each of two jars for each dosage treated. As a control 10 milliliters of a water-acetone-emulsifier solution containing no test compound was also added to jars containing nematode larvae. The jars were capped and the contents thoroughly mixed on a kale mill for five minutes. The jars remained capped at room temperature for a period of 48 hours and the contents were then transferred to 3 inch pots. Subsequently, the pots were seeded to cucumber as an indicator crop and placed in the green house where they were cared for in the normal fashion for growing potted cucumber for approximately three weeks. These cucumber plants were then removed from the pots, the soil washed from the roots and the amount of galling visually rated.
The nematocidal toxicity has the following ratings;

Structure (SMILES): CSC(C)(C)C=NOC(=O)N(C)SSN(C)C(=O)ON=CC(C)(C)SC [N,N'-bis-[2-methylthio-2-methylpropionaldehyde O-(N-methylcarbamoyl)oxime]disulfide]
- Bean Aphid control rating [1]: A
- 2-Spotted Mite control rating [2]: A
- Southern Armyworm control rating [3]: A
- Mexican Bean Beetle control rating [4]: A
- House-Fly control rating [5]: A
- Root-Knot Nematode galling rating [6]: 5

Structure (SMILES): CC1OCSC1=NOC(=O)N(C)SSN(C)C(=O)ON=C1SCOC1C (stereo not drawn) [N,N'-bis-[5-Methyl-4-(O-(N-methylcarbamoyl)oximino)-1,3-oxathiolane]disulfide]
- Bean Aphid control rating [1]: A
- 2-Spotted Mite control rating [2]: A
- Southern Armyworm control rating [3]: A
- Mexican Bean Beetle control rating [4]: A
- House-Fly control rating [5]: A
- Root-Knot Nematode galling rating [6]: 1
